The target in experiment [1] is T1, Motilin receptor (Homo sapiens, UniProt O43193). In words: Compound was tested for in vitro motilin receptor binding affinity.
A further experiment deals with Escherichia coli. In words: Tested for the minimum inhibitory concentration by agar dilution method against Escherichia coli NIHJ JC-2. The class given is functional. (Agar dilution tests growth on a series of plates holding different concentrations.)
The next experiment deals with Bacillus subtilis. In words: Compound was tested for the minimum inhibitory concentration by agar dilution method against Bacillus subtilis ATCC 6633. The class given is functional.
In a further experiment the test system is Klebsiella pneumoniae. Description: Tested for the minimum inhibitory concentration by agar dilution method against Klebsiella pneumoniae IFO 3512. The class given is functional.
Experiment [2] deals with T1, Motilin receptor. Description: Compound was tested for in vitro motilin receptor binding affinity after treatment with hydrochloric acid solution (pH 2.5).
For another experiment, the system named is Staphylococcus aureus. In words: Tested for the minimum inhibitory concentration by agar dilution method against Staphylococcus aureus 209P. The class given is functional.
For a further experiment, the species on record is Oryctolagus cuniculus. In words: Compound was tested for the in vitro smooth muscle contractile activity. To be noted: Muscle tissue. The class given is functional.
The next experiment deals with Streptococcus pneumoniae. In words: Tested for the minimum inhibitory concentration by agar dilution method against Streptococcus pneumoniae No. 12. The class given is functional.
For experiment [3], the system named is Canis familiaris. In words: Motor index (MI) was reported in vivo for smooth muscle contractile activity after i.v. administration of the compound. The class given is functional, Canis lupus familiaris, Muscle tissue.
The test system of experiment [4] is Canis familiaris. Description: Motor index (MI) was reported in vivo for smooth muscle contractile activity after i.g. administration of the compound. The class given is functional, Canis lupus familiaris, Muscle tissue.

Converted amounts (≈) assume the structure as drawn.

T1 sequence (O43193 whole entry): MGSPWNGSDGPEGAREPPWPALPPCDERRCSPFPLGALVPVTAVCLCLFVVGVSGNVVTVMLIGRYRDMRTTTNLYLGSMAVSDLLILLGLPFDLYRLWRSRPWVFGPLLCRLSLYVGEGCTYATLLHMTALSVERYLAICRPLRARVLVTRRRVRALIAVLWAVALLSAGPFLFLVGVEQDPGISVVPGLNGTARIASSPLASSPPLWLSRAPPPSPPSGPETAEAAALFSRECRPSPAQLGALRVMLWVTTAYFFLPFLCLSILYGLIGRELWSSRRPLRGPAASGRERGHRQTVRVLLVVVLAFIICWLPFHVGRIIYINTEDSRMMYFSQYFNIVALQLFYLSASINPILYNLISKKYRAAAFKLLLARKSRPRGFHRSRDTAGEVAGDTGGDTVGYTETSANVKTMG

What is called IC50 is the point on the concentration scale where inhibition reaches its midpoint. As a reminder, the MIC is the lowest concentration found to suppress growth. Low values mean greater potency, high ones weaker potency. In general, EC50 refers to the midpoint of the concentration-response curve. Lower therefore signals higher potency in that assay. With `CCC1OC(=O)C(C)C(O[C@H]2C[C@@](C)(OC)[C@@H](O)C(C)O2)C(C)[C@@H](OC2OC(C)CC(N(C)C)[C@H]2O)[C@]2(C)CC(C)=C(O2)[C@H](C)[C@@H](O)[C@]1(C)OC` (stereo not given in full), the IC50 at Motilin receptor [1] was 7.59 nM; on Motilin receptor [2], 39.8 nM. Besides, the MIC is over 200 µM in the experiment on Escherichia coli; 6.3 µM (≈ 4.6 µg/mL) in the experiment on Bacillus subtilis; 200 µM (≈ 146 µg/mL) against Klebsiella pneumoniae; 25 µM (≈ 18.2 µg/mL) in the experiment on Staphylococcus aureus; 1.6 µM (≈ 1.17 µg/mL) against Streptococcus pneumoniae. Further, a half-maximal response in the experiment filed under Oryctolagus cuniculus (EC50) required 19.5 nM.

With `CCC1OC(=O)C(C)C(O[C@H]2C[C@@](C)(OC)[C@@H](O)C(C)O2)C(C)[C@@H](OC2OC(C)CC(N(C)CC)[C@H]2O)[C@]2(C)CC(C)=C(O2)[C@H](C)[C@@H](O)[C@]1(C)OC` (stereo not given in full), the IC50 on Motilin receptor [1] was 4.68 nM; on Motilin receptor [2], 8.32 nM. The MIC was over 200 µM against Escherichia coli; over 200 µM against Bacillus subtilis; over 200 µM against Klebsiella pneumoniae; over 200 µM against Staphylococcus aureus; 50 µM (≈ 37.2 µg/mL) against Streptococcus pneumoniae. In the experiment filed under Oryctolagus cuniculus, this molecule showed an EC50 of 22.9 nM.

For `CCC1OC(=O)C(C)C(O[C@H]2C[C@@](C)(OC)[C@@H](O)C(C)O2)C(C)[C@@H](OC2OC(C)CC(N(C)C)[C@H]2O)[C@]2(C)CC(C)C3(O[C@]1(C)[C@H](O)[C@H]3C)O2` (stereo not given in full), the results for the IC50 at Motilin receptor [1] and at Motilin receptor [2] were 155 nM and 170 nM, respectively. In the experiment filed under Oryctolagus cuniculus, this molecule gave an EC50 of over 10000 nM. In addition, in the experiment with Canis familiaris [3], the MI100 is over 70 µg/kg.

As for `CCC1OC(=O)C(C)C(O[C@H]2C[C@@](C)(OC)[C@@H](O)C(C)O2)C(C)[C@@H](OC2OC(C)CC(N(C)C(C)C)[C@H]2O)[C@]2(C)CC(C)=C(O2)[C@H](C)[C@@H](O)[C@]1(C)OC` (stereo not given in full), the results for the half-maximal inhibitory concentration (IC50) at Motilin receptor [1] and on Motilin receptor [2] were 6.92 nM and 15.1 nM, respectively. For the same molecule, the minimal inhibitory concentration (MIC) against Escherichia coli was over 200 µM; in the experiment on Bacillus subtilis it was over 200 µM; against Klebsiella pneumoniae it was over 200 µM; with Staphylococcus aureus, over 200 µM; against Streptococcus pneumoniae it was 200 µM (≈ 152 µg/mL). Also, the response in the experiment listed under Oryctolagus cuniculus was half-maximal at 12.9 nM (EC50). Further, the MI100 is 0.44 µg/kg with Canis familiaris [3] and 1.2 µg/kg in the experiment with Canis familiaris [4].

In the case of `CC[C@H]1OC(=O)[C@H](C)[C@@H](O[C@H]2C[C@@](C)(OC)[C@@H](O)[C@H](C)O2)[C@H](C)[C@@H](OC2O[C@H](C)C[C@H](N(C)C)[C@H]2O)C2(C)CC(C)=C(O2)[C@H](C)[C@@H](O)[C@]1(C)O` (single isomer, unassigned), the IC50 on Motilin receptor [1] was 3.39 nM; at Motilin receptor [2], 224 nM. This molecule also came in with an MI100 in the experiment on Canis familiaris [3] of 1 µg/kg.

With `CC[C@H]1OC(=O)[C@H](C)[C@@H](O[C@H]2C[C@@](C)(OC)[C@@H](O)[C@H](C)O2)[C@H](C)[C@@H](OC2O[C@H](C)C[C@H](N(C)C)[C@H]2O)C(C)(O)C[C@@H](C)C(=O)[C@H](C)[C@@H](O)[C@]1(C)O` (single isomer, unassigned) [ERYTHROMYCIN], the MIC was found to be 100 µM (≈ 73.4 µg/mL) in the experiment with Escherichia coli; 0.39 µM (≈ 0.286 µg/mL) in the experiment on Bacillus subtilis; 6.3 µM (≈ 4.62 µg/mL) in the experiment on Klebsiella pneumoniae; 0.39 µM (≈ 0.286 µg/mL) in the experiment on Staphylococcus aureus; 0.1 µM (≈ 0.0734 µg/mL) with Streptococcus pneumoniae. This molecule had a 50% effective concentration (EC50) in the experiment listed under Oryctolagus cuniculus of 316 nM. The same molecule registered an MI100 with Canis familiaris [3] of 32.3 µg/kg.
